As usually defined, the pIC50 is the IC50 on a negative log10 scale, so that one unit is a factor of ten.

In patent US11306078B2, “Piperidine CXCR7 receptor modulators” (IDORSIA PHARMACEUTICALS LTD., priority 2016, dated 2022) one finds IC50 data, which are given here for 31 compounds.

pIC50: −log10 of the molar value.

human chemokine receptor CXCR7, sequence (P25106 whole entry): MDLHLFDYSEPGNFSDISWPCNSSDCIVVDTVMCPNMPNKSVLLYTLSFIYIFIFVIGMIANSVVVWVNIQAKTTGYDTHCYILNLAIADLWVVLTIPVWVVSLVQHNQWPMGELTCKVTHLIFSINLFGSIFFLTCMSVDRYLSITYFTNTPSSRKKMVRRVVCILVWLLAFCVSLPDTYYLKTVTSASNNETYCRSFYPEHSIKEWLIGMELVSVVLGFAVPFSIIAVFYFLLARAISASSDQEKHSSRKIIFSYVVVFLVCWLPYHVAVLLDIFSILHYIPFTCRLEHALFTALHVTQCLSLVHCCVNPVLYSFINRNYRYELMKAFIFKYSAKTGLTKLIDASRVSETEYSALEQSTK

This assay concerns the target human chemokine receptor CXCR7 (Homo sapiens (Human), UniProt P25106). Description: Tango CXCR7-bla U2OS beta-arrestin recruitment assay (beta-lactamase reporter, FRET), antagonism of CXCL12/SDF1-α.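 Further: compounds preincubated 15 min before CXCL12 addition, then 22 h at 37 °C, FRET emission ratio read with CCF4-AM substrate after 2 h.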 The class given is cell-based. The following applies: antagonistic effect on CXCR7; Tango CXCR7-bla U2OS cells, CXCL12/SDF1-α at its EC80. In general terms: Activated receptors often draw arrestin, which recruitment assays turn into a signal.
`C[C@@H](NC(=O)[C@H]1CN(CC2CC2)CC[C@@H]1NC(=O)c1cc(-c2ccc(F)cc2F)no1)c1ccccn1` (single isomer, unassigned) [Example 1.154a, (3S,4S)-1-Cyclopropylmethyl-4-{[3-(2,4-difluoro-phenyl)-isoxazole-5-carbonyl]-amino}-piperidine-3-carboxylic acid ((R)-1-pyridin-2-yl-ethyl)-amide or (3R,4R)-1-Cyclopropylmethyl-4-{[3-(2,4-difluoro-phenyl)-isoxazole-5-carbonyl]-amino}-piperidine-3-carboxylic acid ((R)-1-pyridin-2-yl-ethyl)-amide]: the pIC50 is 7.34.
Regarding `CN(CCc1ccccn1)C(=O)[C@@H]1CN(CC2CC2)CC[C@H]1NC(=O)c1cc(-c2ccc(F)cc2F)on1` [Example 2.079], the pIC50 was 7.42.
`CN(C)C(=O)[C@@H]1CN(CC2(C)CC2)CC[C@H]1NC(=O)c1cc(-c2ccc(F)cc2F)on1` [Example 2.034] had a pIC50 of 7.06.
The result for `CC(NC(=O)[C@H]1CN(CC2CC2)CC[C@@H]1NC(=O)c1cc(-c2ccc(F)cc2F)on1)c1nc[nH]n1` (stereo partly shown) [Example 4.047] reads 6.50.
As to `O=C(N[C@H]1CCN(C2CCCC2)C[C@@H]1C(=O)NC1(C2CC2)CC1)c1cc(-c2ccc(F)cc2F)on1` [Example 4.036], the pIC50 was 6.90.
`COCCCN(C)C(=O)[C@@H]1CN(C2CCCCC2)CC[C@H]1NC(=O)c1cc(-c2ccc(F)cc2F)on1` (racemic) [Example 1.027, rac-(3R*,4R*)-1-Cyclohexyl-4-{[5-(2,4-difluoro-phenyl)-isoxazole-3-carbonyl]-amino}-piperidine-3-carboxylic acid (3-methoxy-propyl)-methyl-amide]: the pIC50 is 6.93.
`C[C@@H](NC(=O)[C@H]1CN(C2CCCCC2)CC[C@@H]1NC(=O)c1cc(-c2ccc(F)cc2F)on1)C1CCC1` [Example 4.014] showed a negative-log IC50 (pIC50) of 6.44.
`O=C(N[C@@H]1CCN(C2CCCCC2)C[C@H]1C(=O)N1CCC1)c1cn(-c2ccc(F)cc2F)nn1` (racemic) [Example 1.104, rac-1-(2,4-Difluoro-phenyl)-1H-[1,2,3]triazole-4-carboxylic acid [(3R*,4R*)-3-(azetidine-1-carbonyl)-1-cyclohexyl-piperidin-4-yl]-amide] gave a pIC50 of 6.02.
In turn, “(3R*,4R*)-1-Cyclohexyl-4-{[3-(2,4-difluoro-phenyl)-isoxazole-5-carbonyl]-amino}-piperidine-3-carboxylic acid ((1S*,2R)-2-phenyl-cyclopropyl)-amide and (3R*,4R*)-1-Cyclohexyl-4-{[3-(2,4-difluoro-phenyl)-isoxazole-5-carbonyl]-amino}-piperidine-3-carboxylic acid ((1R*,2S*)-2-phenyl-cyclopropyl)-amide [Example 1.147]” showed a pIC50 of 6.35.
Turning to `C[C@@H](NC(=O)[C@]1(C)CN(C2CCCCC2)CC[C@H]1NC(=O)c1cc(-c2ccc(F)cc2F)on1)c1ccccn1` (relative stereo) [Example 5.001, (3R*,4R*)-1-Cyclohexyl-4-{[5-(2,4-difluoro-phenyl)-isoxazole-3-carbonyl]-amino}-3-methyl-piperidine-3-carboxylic Acid ((R)-1-pyridin-2-yl-ethyl)-amide], the pIC50 is 6.43.
In turn, `CN(C)C(=O)[C@]1(C)CN(C2CCCCC2)CC[C@H]1NC(=O)c1cc(-c2ccc(F)cc2F)on1` (racemic) [Example 5.002, rac-(3R*,4R*)-1-Cyclohexyl-4-{[5-(2,4-difluoro-phenyl)-isoxazole-3-carbonyl]-amino}-3-methyl-piperidine-3-carboxylic Acid Dimethylamide] showed a pIC50 of 6.07.
Take `C[C@@H]1CC[C@H]1N1CC[C@@H](NC(=O)c2cc(-c3ccc(F)cc3F)on2)[C@H](C(=O)N(C)C)C1` [Example 2.016a]: the pIC50 was 7.31.
The compound `O=C(N[C@@H]1CCN(C2CCCCC2)C[C@H]1C(=O)NCCc1ccc(F)cc1)c1cc(-c2ccc(F)cc2F)on1` (racemic) [Example 1.059, rac-(3R*,4R*)-1-Cyclohexyl-4-{[5-(2,4-difluoro-phenyl)-isoxazole-3-carbonyl]-amino}-piperidine-3-carboxylic acid [2-(4-fluoro-phenyl)-ethyl]-amide] gave a pIC50 of 6.85.
Regarding `CN(C)C(=O)[C@@H]1CN(C2CCCCC2)CC[C@H]1NC(=O)c1nnc(-c2ccc(F)cc2F)o1` (racemic) [Example 3.003, rac-(3R*,4R*)-1-Cyclohexyl-4-{[5-(2,4-difluoro-phenyl)-[1,3,4]oxadiazole-2-carbonyl]-amino}-piperidine-3-carboxylic acid dimethylamide], the pIC50 is 6.98.
Next, `O=C(N[C@@H]1CCN(C2CCCC2)C[C@H]1C(=O)NC1(c2ccccn2)CC1)c1cc(-c2c(F)cc(F)cc2F)on1` [Example 1.17]: 7.80; `C[C@@H](NC(=O)[C@@H]1CN(C2CCCC2)CC[C@H]1NC(=O)c1noc(-c2ccc(F)cc2F)n1)c1ccccn1` (relative stereo) [Example 1.157, (3R*,4R*)-1-Cyclopentyl-4-{[5-(2,4-difluoro-phenyl)-[1,2,4]oxadiazole-3-carbonyl]-amino}-piperidine-3-carboxylic acid ((R)-1-pyridin-2-yl-ethyl)-amide]: 6.88; `O=C(N[C@H]1CCN(C2CCCC2)C[C@@H]1C(=O)NC1(c2ccccn2)CC1)c1cn(-c2ccc(F)cc2F)nn1` [Example 2.092]: 7.02.
Regarding `C[C@@H](NC(=O)[C@@H]1CN(C2CCCC2)CC[C@H]1NC(=O)c1cc(-c2c(F)cc(F)cc2F)on1)c1ccccn1` (relative stereo) [Example 1.122, (3R*,4R*)-1-Cyclopentyl-4-{[5-(2,4,6-trifluoro-phenyl)-isoxazole-3-carbonyl]-amino}-piperidine-3-carboxylic acid ((R)-1-pyridin-2-yl-ethyl)-amide], the pIC50 is 8.00.
Next, `O=C(N[C@@H]1CCN(C2CCCCC2)C[C@H]1C(=O)NC[C@H](O)c1ccccc1)c1cc(-c2ccc(F)cc2F)on1` (relative stereo) [Example 1.072, (3R*,4R*)-1-Cyclohexyl-4-{[5-(2,4-difluoro-phenyl)-isoxazole-3-carbonyl]-amino}-piperidine-3-carboxylic acid ((R)-2-hydroxy-2-phenyl-ethyl)-amide]: 7.49.
Next, `CCN1CC[C@H](NC(=O)c2cc(-c3ccc(F)cc3F)on2)[C@@H](C(=O)N[C@H](C)c2cccc(C)n2)C1` [Example 4.095]: 7.24; `CN(C)C(=O)[C@@H]1CN(Cc2ccccc2)CC[C@H]1NC(=O)c1cc(-c2ccc(F)cc2F)on1` [Example 2.081]: 6.93; `COc1ccc(-c2cc(C(=O)N[C@@H]3CCN(CC4CC4)C[C@H]3C(=O)NC3(c4ncccn4)CC3)no2)c(F)c1` (racemic) [Example 1.195, rac-(3R*,4R*)-1-Cyclopropylmethyl-4-{[5-(2-fluoro-4-methoxy-phenyl)-isoxazole-3-carbonyl]-amino}-piperidine-3-carboxylic acid (1-pyrimidin-2-yl-cyclopropyl)-amide]: 6.12.
The compound `O=C(N[C@H]1CCN(CC2CC2)C[C@@H]1C(=O)NC1(c2ncccn2)CC1)c1nc(-c2ccc(F)cc2F)co1` [Example 7.01] showed a negative logarithm of the IC50 (pIC50) of 7.22.
The result for `C[C@H]([C@@H](C)O)N1CC[C@@H](NC(=O)c2cc(-c3ccc(F)cc3F)on2)[C@H](C(=O)N[C@H](C)c2ccccn2)C1` [Example 2.054] reads 6.86.
The result for `Cn1cc(C(C)(C)NC(=O)[C@H]2CN(C3CCCC3)CC[C@@H]2NC(=O)c2cc(-c3ccc(F)cc3F)on2)cn1` [Example 4.034] reads 6.59; that for `O=C(N[C@@H]1CCN(C2CCCCC2)C[C@H]1C(=O)NC[C@@H](O)c1ccccc1)c1cc(-c2ccc(F)cc2F)on1` (relative stereo) [Example 1.073, (3R*,4R*)-1-Cyclohexyl-4-{[5-(2,4-difluoro-phenyl)-isoxazole-3-carbonyl]-amino}-piperidine-3-carboxylic acid ((S)-2-hydroxy-2-phenyl-ethyl)-amide], 6.93; that for `O=C(N[C@@H]1CCN(C2CCCCC2)C[C@H]1C(=O)NC1(c2ccccn2)CC1)c1cc(-c2c(F)cc(F)cc2F)on1` (racemic) [Example 1.169, rac-(3R*,4R*)-1-Cyclohexyl-4-{[5-(2,4,6-trifluoro-phenyl)-isoxazole-3-carbonyl]-amino}-piperidine-3-carboxylic acid (1-pyridin-2-yl-cyclopropyl)-amide], 8.30.
The compound `O=C(N[C@@H]1CCN(CC2CC2)C[C@H]1C(=O)NC1(c2ncccn2)CC1)c1cc(-c2cccc(C(F)(F)F)c2)on1` (single isomer, unassigned) [Example 1.193a, (3R,4R)-1-Cyclopropylmethyl-4-{[5-(3-trifluoromethyl-phenyl)-isoxazole-3-carbonyl]-amino}-piperidine-3-carboxylic acid (1-pyrimidin-2-yl-cyclopropyl)-amide or (3S,4S)-1-cyclopropylmethyl-4-{[5-(3-trifluoromethyl-phenyl)-isoxazole-3-carbonyl]-amino}-piperidine-3-carboxylic acid (1-pyrimidin-2-yl-cyclopropyl)-amide] had a pIC50 of 7.01.
Turning to `O=C(N[C@@H]1CCN(CC2CC2)C[C@H]1C(=O)NC1(c2ccc(F)cn2)CC1)c1cc(-c2ccc(F)cc2F)no1` (racemic) [Example 1.163, rac-(3R*,4R*)-1-Cyclopropylmethyl-4-{[3-(2,4-difluoro-phenyl)-isoxazole-5-carbonyl]-amino}-piperidine-3-carboxylic acid [1-(5-fluoro-pyridin-2-yl)-cyclopropyl]-amide], the pIC50 is 6.02.
The compound `CC1(NC(=O)[C@@H]2CN(C3CCCCC3)CC[C@H]2NC(=O)c2cc(-c3ccc(F)cc3F)on2)CC1` [Example 4.018] showed a pIC50 of 6.46.
In turn, `O=C(N[C@H]1CCN(CC2CC2)C[C@@H]1C(=O)NC1(c2cccc[n+]2[O-])CC1)c1cc(-c2ccc(F)cc2F)on1` [Example 2.061] gave a pIC50 of 7.39.
